Assay results taken from patent US9518018B2, “3-alkoxy, thioalkyl and amino-4-amino-6-(substituted)picolinates and their use as herbicides” (Dow AgroSciences LLC, priority 2011, dated 2016).

Tests used:
Assay in all cases: In-water applied herbicidal activity in transplanted paddy rice
Type in all cases: in vivo
[1] = tested on: ORYSA = Oryza sativa ‘M202’ (rice); conditions: for GR50 ORYSA ‘M202’: Table 7, dose to kill or control 50 percent; for GR50 ORYSA ‘M202’ / GR90 ORYSA ‘M202’: 21 days after application; for GR90 ORYSA ‘M202’: Table 7, dose to kill or control 90 percent
Procedure: (§1) Weed seeds or nutlets of the desired test plant species were planted in puddled soil (mud) prepared by mixing a non-sterilized mineral soil (28 percent silt, 18 percent clay, and 54 percent sand, with a pH of about 7.3 to 7.8 and an organic matter content of about 1.0 percent) and water at a ratio of 100 kilograms (kg) of soil to 19 liters (L) of water. The prepared mud was dispensed in 250 mL aliquots into 480 mL non-perforated plastic pots with a surface area of 86.59 cm^2 leaving a headspace of 2.5 to 3 cm in each pot. Rice seeds were planted in Sun Gro MetroMix 306 planting mixture, which typically has a pH of 6.0 to 6.8 and an organic matter content of about 30 percent, in plastic plug trays. Seedlings at the second or third leaf stage of growth were transplanted into 650 mL of mud contained in 960 mL non-perforated plastic pots with a surface area of 86.59 cm^2 four days prior to herbicide application. The paddy was created by filling the 2.5 to 3 cm headspace of the pots with water. When required to ensure good germination and healthy plants, a fungicide treatment and/or other chemical or physical treatment was applied. The plants were grown for 4-14 d in a greenhouse with an approximate 14-h photoperiod which was maintained at about 29° C. during the day and 26° C. during the night. Nutrients were added as Osmocote (17:6:10, Nitrogen:Phosphorus:Potassium (N:P:K)+minor nutrients) at 2 grams (g) per cup. Water was added on a regular basis to maintain the paddy flood, and supplemental lighting was provided with overhead metal halide 1000-Watt lamps as necessary. The plants were employed for testing when they reached the second or third true leaf stage. Treatments consisted of compounds 45, 34, and 66. For technical grade compounds, a weighed amount, determined by the highest rate to be tested, was placed in an individual 120 mL glass vial and was dissolved in 20 mL of acetone to obtain concentrated stock solutions. […] The concentrated stock solutions obtained were diluted with 20 mL of an aqueous mixture containing 2.5% Agri-dex crop oil concentrate (v/v). Applications were made by injecting an appropriate amount of the stock solution into the aqueous layer of the paddy. Control plants were treated in the same manner with the solvent blank. All treated plant material received the same concentration of acetone and crop oil concentrate. The treated plants and control plants were placed in a greenhouse as described above and water was added as needed to maintain a paddy flood. After approximately 3 weeks, the condition of the test plants, compared with that of the untreated plants, was determined visually and scored on a scale of 0 to 100 percent where 0 corresponds to no injury and 100 corresponds to complete kill. By applying the well-accepted probit analysis as described by J. Berkson in Journal of the […], 48, 565 (1953) and by D. Finney in “Probit Analysis” Cambridge University Press (1952) or by plotting the mean data and fitting a logarithmic curve to the portion of the data where there was a dose response using Microsoft Excel®, the above data can be used to calculate GR50 and GR90 values, which are defined as growth reduction factors that correspond to the effective dose of herbicide required to kill or control 50 percent or 90 percent, respectively, of a target plant.

[2] = tested on: SCPJU = Scirpus juncoides ROXB. (Japanese bulrush); conditions: for GR50 SCPJU: Table 7, dose to kill or control 50 percent; for GR50 SCPJU / GR90 SCPJU: 21 days after application; for GR90 SCPJU: Table 7, dose to kill or control 90 percent
Procedure: as §1

[3] = tested on: ORYSA = Oryza sativa ‘Wells’ (rice); conditions: for GR50 ORYSA ‘Wells’: Table 7, dose to kill or control 50 percent; for GR50 ORYSA ‘Wells’ / GR90 ORYSA ‘Wells’: 21 days after application; for GR90 ORYSA ‘Wells’: Table 7, dose to kill or control 90 percent
Procedure: as §1

[4] = tested on: CYPDI = Cyperus difformis L. (small-flower flatsedge); conditions: for GR50 CYPDI: Table 7, dose to kill or control 50 percent; for GR50 CYPDI / GR90 CYPDI: 21 days after application; for GR90 CYPDI: Table 7, dose to kill or control 90 percent
Procedure: as §1

[5] = tested on: MOOVA = Monochoria vaginalis (BURM.f.) C.PRESL ex KUNTH (monochoria); conditions: for GR50 MOOVA: Table 7, dose to kill or control 50 percent; for GR50 MOOVA / GR90 MOOVA: 21 days after application; for GR90 MOOVA: Table 7, dose to kill or control 90 percent
Procedure: as §1

[6] = tested on: ECHCG = Echinochloa crus-galli (L.) P.BEAUV. (barnyardgrass); conditions: for GR50 ECHCG: Table 7, dose to kill or control 50 percent; for GR50 ECHCG / GR90 ECHCG: 21 days after application; for GR90 ECHCG: Table 7, dose to kill or control 90 percent
Procedure: as §1

SMILES: COc1c(C(=O)O)nc(-c2ccc(Cl)c(OC)c2F)c(F)c1N [Compound 45, 4-amino-6-(4-chloro-2-fluoro-3-methoxyphenyl)-5-fluoro-3-methoxypicolinic acid]
- Mean Visual Injury (%)-21 Days After Application ORYSA ‘M202’ ([1]; Table 7, 8.75 g ae/ha): 0%
- Mean Visual Injury (%)-21 Days After Application ORYSA ‘M202’ ([1]; Table 7, 17.5 g ae/ha): 0%
- Mean Visual Injury (%)-21 Days After Application ORYSA ‘M202’ ([1]; Table 7, 35 g ae/ha): 0%
- Mean Visual Injury (%)-21 Days After Application ORYSA ‘M202’ ([1]; Table 7, 70 g ae/ha): 0%
- Mean Visual Injury (%)-21 Days After Application ORYSA ‘M202’ ([1]; Table 7, 140 g ae/ha): 12%
- GR50 ORYSA ‘M202’ [1]: >140 g ae/ha
- GR90 ORYSA ‘M202’ [1]: >140 g ae/ha
- Mean Visual Injury (%)-21 Days After Application SCPJU ([2]; Table 7, 8.75 g ae/ha): 10%
- Mean Visual Injury (%)-21 Days After Application SCPJU ([2]; Table 7, 17.5 g ae/ha): 63%
- Mean Visual Injury (%)-21 Days After Application SCPJU ([2]; Table 7, 35 g ae/ha): 93%
- Mean Visual Injury (%)-21 Days After Application SCPJU ([2]; Table 7, 70 g ae/ha): 100%
- Mean Visual Injury (%)-21 Days After Application SCPJU ([2]; Table 7, 140 g ae/ha): 100%
- GR50 SCPJU [2]: 16.8 g ae/ha
- GR90 SCPJU [2]: 42.4 g ae/ha
- Mean Visual Injury (%)-21 Days After Application ORYSA ‘Wells’ ([3]; Table 7, 8.75 g ae/ha): 0%
- Mean Visual Injury (%)-21 Days After Application ORYSA ‘Wells’ ([3]; Table 7, 17.5 g ae/ha): 0%
- Mean Visual Injury (%)-21 Days After Application ORYSA ‘Wells’ ([3]; Table 7, 35 g ae/ha): 0%
- Mean Visual Injury (%)-21 Days After Application ORYSA ‘Wells’ ([3]; Table 7, 70 g ae/ha): 0%
- Mean Visual Injury (%)-21 Days After Application ORYSA ‘Wells’ ([3]; Table 7, 140 g ae/ha): 7%
- GR50 ORYSA ‘Wells’ [3]: >140 g ae/ha
- GR90 ORYSA ‘Wells’ [3]: >140 g ae/ha
- Mean Visual Injury (%)-21 Days After Application CYPDI ([4]; Table 7, 8.75 g ae/ha): 67%
- Mean Visual Injury (%)-21 Days After Application CYPDI ([4]; Table 7, 17.5 g ae/ha): 100%
- Mean Visual Injury (%)-21 Days After Application CYPDI ([4]; Table 7, 35 g ae/ha): 100%
- Mean Visual Injury (%)-21 Days After Application CYPDI ([4]; Table 7, 70 g ae/ha): 100%
- Mean Visual Injury (%)-21 Days After Application CYPDI ([4]; Table 7, 140 g ae/ha): 100%
- GR50 CYPDI [4]: <8.75 g ae/ha
- GR90 CYPDI [4]: 14.2 g ae/ha
- Mean Visual Injury (%)-21 Days After Application MOOVA ([5]; Table 7, 8.75 g ae/ha): 100%
- Mean Visual Injury (%)-21 Days After Application MOOVA ([5]; Table 7, 17.5 g ae/ha): 100%
- Mean Visual Injury (%)-21 Days After Application MOOVA ([5]; Table 7, 35 g ae/ha): 100%
- Mean Visual Injury (%)-21 Days After Application MOOVA ([5]; Table 7, 70 g ae/ha): 100%
- Mean Visual Injury (%)-21 Days After Application MOOVA ([5]; Table 7, 140 g ae/ha): 100%
- GR50 MOOVA [5]: <8.75 g ae/ha
- GR90 MOOVA [5]: <8.75 g ae/ha
- Mean Visual Injury (%)-21 Days After Application ECHCG ([6]; Table 7, 8.75 g ae/ha): 0%
- Mean Visual Injury (%)-21 Days After Application ECHCG ([6]; Table 7, 17.5 g ae/ha): 0%
- Mean Visual Injury (%)-21 Days After Application ECHCG ([6]; Table 7, 35 g ae/ha): 30%
- Mean Visual Injury (%)-21 Days After Application ECHCG ([6]; Table 7, 70 g ae/ha): 100%
- Mean Visual Injury (%)-21 Days After Application ECHCG ([6]; Table 7, 140 g ae/ha): 100%
- GR50 ECHCG [6]: 38.4 g ae/ha
- GR90 ECHCG [6]: 66.8 g ae/ha

SMILES: COC(=O)c1nc(-c2ccc(Cl)c(OC)c2F)c(F)c(N)c1OC [Compound 34]
- Mean Visual Injury (%)-21 Days After Application ORYSA ‘M202’ ([1]; Table 7, 8.75 g ae/ha): 0%
- Mean Visual Injury (%)-21 Days After Application ORYSA ‘M202’ ([1]; Table 7, 17.5 g ae/ha): 0%
- Mean Visual Injury (%)-21 Days After Application ORYSA ‘M202’ ([1]; Table 7, 35 g ae/ha): 0%
- Mean Visual Injury (%)-21 Days After Application ORYSA ‘M202’ ([1]; Table 7, 70 g ae/ha): 7%
- Mean Visual Injury (%)-21 Days After Application ORYSA ‘M202’ ([1]; Table 7, 140 g ae/ha): 8%
- GR50 ORYSA ‘M202’ [1]: >140 g ae/ha
- GR90 ORYSA ‘M202’ [1]: >140 g ae/ha
- Mean Visual Injury (%)-21 Days After Application SCPJU ([2]; Table 7, 8.75 g ae/ha): 67%
- Mean Visual Injury (%)-21 Days After Application SCPJU ([2]; Table 7, 17.5 g ae/ha): 90%
- Mean Visual Injury (%)-21 Days After Application SCPJU ([2]; Table 7, 35 g ae/ha): 100%
- Mean Visual Injury (%)-21 Days After Application SCPJU ([2]; Table 7, 70 g ae/ha): 100%
- Mean Visual Injury (%)-21 Days After Application SCPJU ([2]; Table 7, 140 g ae/ha): 100%
- GR50 SCPJU [2]: <8.75 g ae/ha
- GR90 SCPJU [2]: 21.1 g ae/ha
- Mean Visual Injury (%)-21 Days After Application ORYSA ‘Wells’ ([3]; Table 7, 8.75 g ae/ha): 0%
- Mean Visual Injury (%)-21 Days After Application ORYSA ‘Wells’ ([3]; Table 7, 17.5 g ae/ha): 0%
- Mean Visual Injury (%)-21 Days After Application ORYSA ‘Wells’ ([3]; Table 7, 35 g ae/ha): 0%
- Mean Visual Injury (%)-21 Days After Application ORYSA ‘Wells’ ([3]; Table 7, 70 g ae/ha): 0%
- Mean Visual Injury (%)-21 Days After Application ORYSA ‘Wells’ ([3]; Table 7, 140 g ae/ha): 5%
- GR50 ORYSA ‘Wells’ [3]: >140 g ae/ha
- GR90 ORYSA ‘Wells’ [3]: >140 g ae/ha
- Mean Visual Injury (%)-21 Days After Application CYPDI ([4]; Table 7, 8.75 g ae/ha): 100%
- Mean Visual Injury (%)-21 Days After Application CYPDI ([4]; Table 7, 17.5 g ae/ha): 100%
- Mean Visual Injury (%)-21 Days After Application CYPDI ([4]; Table 7, 35 g ae/ha): 100%
- Mean Visual Injury (%)-21 Days After Application CYPDI ([4]; Table 7, 70 g ae/ha): 100%
- Mean Visual Injury (%)-21 Days After Application CYPDI ([4]; Table 7, 140 g ae/ha): 100%
- GR50 CYPDI [4]: <8.75 g ae/ha
- GR90 CYPDI [4]: <8.75 g ae/ha
- Mean Visual Injury (%)-21 Days After Application MOOVA ([5]; Table 7, 8.75 g ae/ha): 100%
- Mean Visual Injury (%)-21 Days After Application MOOVA ([5]; Table 7, 17.5 g ae/ha): 100%
- Mean Visual Injury (%)-21 Days After Application MOOVA ([5]; Table 7, 35 g ae/ha): 100%
- Mean Visual Injury (%)-21 Days After Application MOOVA ([5]; Table 7, 70 g ae/ha): 100%
- Mean Visual Injury (%)-21 Days After Application MOOVA ([5]; Table 7, 140 g ae/ha): 100%
- GR50 MOOVA [5]: <8.75 g ae/ha
- GR90 MOOVA [5]: <8.75 g ae/ha
- Mean Visual Injury (%)-21 Days After Application ECHCG ([6]; Table 7, 8.75 g ae/ha): 0%
- Mean Visual Injury (%)-21 Days After Application ECHCG ([6]; Table 7, 17.5 g ae/ha): 7%
- Mean Visual Injury (%)-21 Days After Application ECHCG ([6]; Table 7, 35 g ae/ha): 90%
- Mean Visual Injury (%)-21 Days After Application ECHCG ([6]; Table 7, 70 g ae/ha): 98%
- Mean Visual Injury (%)-21 Days After Application ECHCG ([6]; Table 7, 140 g ae/ha): 100%
- GR50 ECHCG [6]: 25.4 g ae/ha
- GR90 ECHCG [6]: 52.9 g ae/ha
